For orientation: IC50 means the concentration at which inhibition is half-maximal.

In assay [1] the target is T1, Human PD-L1/PD-1 (Homo sapiens, UniProt Q9NZQ7).
T1 construct: made in house; host or cells: HEK293T
Kind of assay: HTRF PD-1-Ig/PD-L1-His binding assay (human PD-L1). The method, boiled down: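 HTRF read-out: Eu cryptate anti-Ig mAb 1 nM final, APC anti-His mAb 20 nM final, added over the binding reaction. Proteins were PD-1-Ig and PD-L1-His ectodomain fusions. Buffer was dPBS, 0.1% BSA, 0.05% Tween-20.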

Assay [2] has as its target T2, LK35.2-hPD-L1 cells / PE-labeled PD-1-Ig (Homo sapiens, UniProt Q9NZQ7).
T2 construct: expressed in transfected cells; host or cells: LK35.2 mouse B cell line
Description: LK35.2-hPD-L1 cell binding high-content screening assay. The settings on record: cell line of CBA not given (LK35.2-hPD-L1 or 293T-hPD-L1). Type of assay: cell-based. Put shortly:
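Compound effect on PD-1/PD-L1 binding is measured by imaging cell-associated phycoerythrin signal. Human PD-1-Ig (PE on Ig tag, 1 nM final) is applied with compound to a murine B cell line overexpressing human PD-L1 for 1 h at 37 °C in serum-containing RPMI.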

The mark [3] stands for this setting: cluster symbol, read-out: HTRF IC50 cluster.
Setting [4] is: cluster symbol, read-out: CBA IC50 cluster.

Read-outs that look alike come from different tables or passages of the source. Positions of bridges follow the written chain, without caps; N, C: chain ends. Non-standard residues stand in square brackets, D forms with d. Residues, ends and D or L forms follow the SMILES beside them. Phe(3,4-F2) = N[C@@H](Cc1ccc(F)c(F)c1)C(=O)O; Phe(4-CH2NH2) = NCc1ccc(C[C@H](N)C(=O)O)cc1; Phe(3-Cl) = N[C@@H](Cc1cccc(Cl)c1)C(=O)O; Phe(2-Cl) = N[C@@H](Cc1ccccc1Cl)C(=O)O; Phe(3-F) = N[C@@H](Cc1cccc(F)c1)C(=O)O; Phe(3-Me) = Cc1cccc(C[C@H](N)C(=O)O)c1; Phe(4-F) = N[C@@H](Cc1ccc(F)cc1)C(=O)O; Phe(2-Me) = Cc1ccccc1C[C@H](N)C(=O)O; Bta = N[C@@H](Cc1csc2ccccc12)C(=O)O; NMeF = CN[C@@H](Cc1ccccc1)C(=O)O; NMeNle = CCCC[C@H](NC)C(=O)O; Sar = CNCC(=O)O

T2 sequence (Q9NZQ7 19-290): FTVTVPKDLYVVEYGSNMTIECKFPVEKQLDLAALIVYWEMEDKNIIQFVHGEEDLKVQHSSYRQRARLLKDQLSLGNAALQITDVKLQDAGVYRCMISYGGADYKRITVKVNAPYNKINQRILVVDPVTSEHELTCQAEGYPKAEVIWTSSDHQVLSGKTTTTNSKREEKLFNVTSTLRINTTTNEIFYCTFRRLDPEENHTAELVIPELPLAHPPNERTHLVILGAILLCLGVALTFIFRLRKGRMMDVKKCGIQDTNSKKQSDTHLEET
T1 sequence (Q9NZQ7 with tags, fused parts or gaps): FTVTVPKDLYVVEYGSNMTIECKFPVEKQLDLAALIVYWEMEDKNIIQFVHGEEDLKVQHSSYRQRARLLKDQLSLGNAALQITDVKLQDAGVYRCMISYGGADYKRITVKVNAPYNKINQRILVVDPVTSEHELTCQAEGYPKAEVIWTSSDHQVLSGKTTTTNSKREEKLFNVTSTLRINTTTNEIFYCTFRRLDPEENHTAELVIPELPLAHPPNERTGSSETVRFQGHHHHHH

For `CCCC[C@H]1C(=O)N(C)CC(=O)N[C@@H](CC(=O)O)C(=O)N[C@@H](C(C)C)C(=O)N(C)[C@@H](Cc2ccccc2)C(=O)N[C@@H](Cc2ccc(CN)cc2)C(=O)N(C)CC(=O)N[C@@H](Cc2csc3ccccc23)C(=O)N[C@@H](Cc2ccc(O)cc2)C(=O)N[C@@H](CC(C)C)C(=O)N[C@H](C(=O)NCC(N)=O)CSCC(=O)N[C@@H](Cc2ccc(F)cc2)C(=O)N(C)[C@@H](Cc2ccccc2)C(=O)N1C` [Example 3120] ({CH2CO}-[Phe(4-F)][NMeF][NMeNle][Sar]DV[NMeF][Phe(4-CH2NH2)][Sar][Bta]YLCG-NH2; thioether N-13), the IC50 in assay [1] (setting [3]) lay in the range of 6.76 to 30.3 nM; in assay [2] (setting [4]) it was 0.158 to 4.71 nM.
With `CCCC[C@H]1C(=O)N(C)CC(=O)N[C@@H](CC(=O)O)C(=O)N[C@@H](C(C)C)C(=O)N(C)[C@@H](Cc2ccccc2)C(=O)N[C@@H](Cc2ccc(CN)cc2)C(=O)N(C)CC(=O)N[C@@H](Cc2csc3ccccc23)C(=O)N[C@@H](Cc2ccc(O)cc2)C(=O)N[C@@H](CC(C)C)C(=O)N[C@H](C(=O)NCC(N)=O)CSCC(=O)N[C@@H](Cc2cccc(F)c2)C(=O)N(C)[C@@H](Cc2ccccc2)C(=O)N1C` [Example 3121] ({CH2CO}-[Phe(3-F)][NMeF][NMeNle][Sar]DV[NMeF][Phe(4-CH2NH2)][Sar][Bta]YLCG-NH2; thioether N-13), the IC50 fell in the range of 6.76 to 30.3 nM in assay [1] (setting [3]) and 0.158 to 4.71 nM in assay [2] (setting [4]).
For `CCCC[C@H]1C(=O)N(C)CC(=O)N[C@@H](CC(=O)O)C(=O)N[C@@H](C(C)C)C(=O)N(C)[C@@H](Cc2ccccc2)C(=O)N[C@@H](Cc2ccc(CN)cc2)C(=O)N(C)CC(=O)N[C@@H](Cc2c[nH]c3ccccc23)C(=O)N[C@@H](Cc2ccc(O)cc2)C(=O)N[C@@H](CC(C)C)C(=O)N[C@H](C(=O)NCC(N)=O)CSCC(=O)N[C@@H](Cc2cccc(Cl)c2)C(=O)N(C)[C@@H](Cc2ccccc2)C(=O)N1C` [Example 3122] ({CH2CO}-[Phe(3-Cl)][NMeF][NMeNle][Sar]DV[NMeF][Phe(4-CH2NH2)][Sar]WYLCG-NH2; thioether N-13), the figures for the IC50 in assay [1] (setting [3]) and in assay [2] (setting [4]) were 6.76 to 30.3 nM and 4.78 to 72.9 nM, respectively.
For the compound `CCCC[C@H]1C(=O)N(C)CC(=O)N[C@@H](CC(=O)O)C(=O)N[C@@H](C(C)C)C(=O)N(C)[C@@H](Cc2ccccc2)C(=O)N[C@@H](Cc2ccc(CN)cc2)C(=O)N(C)CC(=O)N[C@@H](Cc2c[nH]c3ccccc23)C(=O)N[C@@H](Cc2ccc(O)cc2)C(=O)N[C@@H](CC(C)C)C(=O)N[C@H](C(=O)NCC(N)=O)CSCC(=O)N[C@@H](Cc2ccc(F)cc2)C(=O)N(C)[C@@H](Cc2ccccc2)C(=O)N1C` [Example 3123] ({CH2CO}-[Phe(4-F)][NMeF][NMeNle][Sar]DV[NMeF][Phe(4-CH2NH2)][Sar]WYLCG-NH2; thioether N-13), the IC50 in assay [1] (setting [3]) lay in the range of 6.76 to 30.3 nM; in assay [2] (setting [4]), 0.158 to 4.71 nM.
As for `CCCC[C@H]1C(=O)N(C)CC(=O)N[C@@H](CC(=O)O)C(=O)N[C@@H](C(C)C)C(=O)N(C)[C@@H](Cc2ccccc2)C(=O)N[C@@H](Cc2ccc(CN)cc2)C(=O)N(C)CC(=O)N[C@@H](Cc2c[nH]c3ccccc23)C(=O)N[C@@H](Cc2ccc(O)cc2)C(=O)N[C@@H](CC(C)C)C(=O)N[C@H](C(=O)NCC(N)=O)CSCC(=O)N[C@@H](Cc2cccc(F)c2)C(=O)N(C)[C@@H](Cc2ccccc2)C(=O)N1C` [Example 3124] ({CH2CO}-[Phe(3-F)][NMeF][NMeNle][Sar]DV[NMeF][Phe(4-CH2NH2)][Sar]WYLCG-NH2; thioether N-13), the IC50 was 6.76 to 30.3 nM in assay [1] (setting [3]) and 0.158 to 4.71 nM in assay [2] (setting [4]).
On to `CCCC[C@H]1C(=O)N(C)CC(=O)N[C@@H](CC(=O)O)C(=O)N[C@@H](C(C)C)C(=O)N(C)[C@@H](Cc2ccccc2)C(=O)N[C@@H](Cc2ccc(O)cc2)C(=O)N(C)CC(=O)N[C@@H](Cc2c[nH]c3ccccc23)C(=O)N[C@@H](Cc2ccc(O)cc2)C(=O)N[C@@H](CC(C)C)C(=O)N[C@H](C(=O)NCC(N)=O)CSCC(=O)N[C@@H](Cc2cccc(F)c2)C(=O)N(C)[C@@H](Cc2ccccc2)C(=O)N1C` [Example 3125] ({CH2CO}-[Phe(3-F)][NMeF][NMeNle][Sar]DV[NMeF]Y[Sar]WYLCG-NH2; thioether N-13), for which the IC50 in assay [1] (setting [3]) was 6.76 to 30.3 nM; in assay [2] (setting [4]), 0.158 to 4.71 nM.
Taken in the same sequence, the figures for `CCCC[C@H]1C(=O)N(C)CC(=O)N[C@@H](CC(=O)O)C(=O)N[C@@H](C(C)C)C(=O)N(C)[C@@H](Cc2ccccc2)C(=O)N[C@@H](Cc2ccc(O)cc2)C(=O)N(C)CC(=O)N[C@@H](Cc2c[nH]c3ccccc23)C(=O)N[C@@H](Cc2ccc(O)cc2)C(=O)N[C@@H](CC(C)C)C(=O)N[C@H](C(=O)NCC(N)=O)CSCC(=O)N[C@@H](Cc2ccc(F)c(F)c2)C(=O)N(C)[C@@H](Cc2ccccc2)C(=O)N1C` [Example 3130] ({CH2CO}-[Phe(3,4-F2)][NMeF][NMeNle][Sar]DV[NMeF]Y[Sar]WYLCG-NH2; thioether N-13) were 6.76 to 30.3 nM and 0.158 to 4.71 nM.
As to `CCCC[C@H]1C(=O)N(C)CC(=O)N[C@@H](CC(=O)O)C(=O)N[C@@H](C(C)C)C(=O)N[C@@H](Cc2cccc(Cl)c2)C(=O)N[C@@H](Cc2ccc(O)cc2)C(=O)N(C)CC(=O)N[C@@H](Cc2c[nH]c3ccccc23)C(=O)N[C@@H](Cc2ccc(O)cc2)C(=O)N[C@@H](CC(C)C)C(=O)N[C@H](C(=O)NCC(N)=O)CSCC(=O)N[C@@H](Cc2ccccc2)C(=O)N(C)[C@@H](Cc2ccccc2)C(=O)N1C` [Example 3131] ({CH2CO}-F[NMeF][NMeNle][Sar]DV[Phe(3-Cl)]Y[Sar]WYLCG-NH2; thioether N-13), the IC50 in assay [1] (setting [3]) was greater than 30.5 nM; in assay [2] (setting [4]) it was greater than 74.3 nM.
As for `CCCC[C@H]1C(=O)N(C)CC(=O)N[C@@H](CC(=O)O)C(=O)N[C@@H](C(C)C)C(=O)N[C@@H](Cc2ccccc2Cl)C(=O)N[C@@H](Cc2ccc(O)cc2)C(=O)N(C)CC(=O)N[C@@H](Cc2c[nH]c3ccccc23)C(=O)N[C@@H](Cc2ccc(O)cc2)C(=O)N[C@@H](CC(C)C)C(=O)N[C@H](C(=O)NCC(N)=O)CSCC(=O)N[C@@H](Cc2ccccc2)C(=O)N(C)[C@@H](Cc2ccccc2)C(=O)N1C` [Example 3132] ({CH2CO}-F[NMeF][NMeNle][Sar]DV[Phe(2-Cl)]Y[Sar]WYLCG-NH2; thioether N-13), the half-inhibitory concentration (IC50) came out at 2230 nM in assay [1] (read-out: HTRF IC50 value) and 3780 nM in assay [2] (read-out: CBA IC50 value).
For `CCCC[C@H]1C(=O)N(C)CC(=O)N[C@@H](CC(=O)O)C(=O)N[C@@H](C(C)C)C(=O)N[C@@H](Cc2ccccc2C)C(=O)N[C@@H](Cc2ccc(O)cc2)C(=O)N(C)CC(=O)N[C@@H](Cc2c[nH]c3ccccc23)C(=O)N[C@@H](Cc2ccc(O)cc2)C(=O)N[C@@H](CC(C)C)C(=O)N[C@H](C(=O)NCC(N)=O)CSCC(=O)N[C@@H](Cc2ccccc2)C(=O)N(C)[C@@H](Cc2ccccc2)C(=O)N1C` [Example 3133] ({CH2CO}-F[NMeF][NMeNle][Sar]DV[Phe(2-Me)]Y[Sar]WYLCG-NH2; thioether N-13), the half-maximal inhibitory concentration (IC50) is greater than 30.5 nM in assay [1] (setting [3]) and greater than 74.3 nM in assay [2] (setting [4]).
In the case of `CCCC[C@H]1C(=O)N(C)CC(=O)N[C@@H](CC(=O)O)C(=O)N[C@@H](C(C)C)C(=O)N[C@@H](Cc2cccc(C)c2)C(=O)N[C@@H](Cc2ccc(O)cc2)C(=O)N(C)CC(=O)N[C@@H](Cc2c[nH]c3ccccc23)C(=O)N[C@@H](Cc2ccc(O)cc2)C(=O)N[C@@H](CC(C)C)C(=O)N[C@H](C(=O)NCC(N)=O)CSCC(=O)N[C@@H](Cc2ccccc2)C(=O)N(C)[C@@H](Cc2ccccc2)C(=O)N1C` [Example 3134] ({CH2CO}-F[NMeF][NMeNle][Sar]DV[Phe(3-Me)]Y[Sar]WYLCG-NH2; thioether N-13), the IC50 in assay [1] (setting [3]) was greater than 30.5 nM; in assay [2] (setting [4]) it was greater than 74.3 nM.

The values are drawn from patent publication US9850283B2, “Macrocyclic inhibitors of the PD-1/PD-L1 and CD80(B7-1)/PD-L1 protein/protein interactions” (BRISTOL-MYERS SQUIBB COMPANY, priority 2013, dated 2017).
